SMILES strings stand for the structures.

This note sets out measurements from US9737517B2, “Pharmaceutical use of hexahydro-dibenzo[a,g]quinolizine compounds” (SHANGHAI INSTITUTE OF MATERIA MEDICA, CHINESE ACADEMY OF …, priority 2013, dated 2017).

The target in one test is T1, α1D-AR (Homo sapiens, UniProt P25100).
T1 construct: expressed in transfected cells; host or cells: HEK293
T1 sequence (P25100 1-572): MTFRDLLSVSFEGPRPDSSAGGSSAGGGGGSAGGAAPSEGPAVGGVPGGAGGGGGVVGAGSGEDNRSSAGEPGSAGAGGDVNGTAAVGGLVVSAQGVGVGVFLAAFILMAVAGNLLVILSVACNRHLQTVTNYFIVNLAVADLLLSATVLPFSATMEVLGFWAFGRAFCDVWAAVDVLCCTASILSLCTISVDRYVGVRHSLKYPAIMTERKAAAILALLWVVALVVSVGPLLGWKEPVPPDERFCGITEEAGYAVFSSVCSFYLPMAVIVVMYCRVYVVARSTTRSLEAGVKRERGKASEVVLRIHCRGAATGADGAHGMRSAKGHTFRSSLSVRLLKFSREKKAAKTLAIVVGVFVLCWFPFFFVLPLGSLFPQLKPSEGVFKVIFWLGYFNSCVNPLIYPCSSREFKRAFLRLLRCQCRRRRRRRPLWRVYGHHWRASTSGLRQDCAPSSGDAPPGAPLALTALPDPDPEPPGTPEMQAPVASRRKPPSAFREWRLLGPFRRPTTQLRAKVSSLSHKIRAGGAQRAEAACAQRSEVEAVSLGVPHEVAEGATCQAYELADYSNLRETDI
Nature of the test: Calcium mobilization (Fluo-4) antagonism of phenylephrine in HEK293 cells expressing α1D-AR/Gα16. The format is cell-based. To be noted: phenylephrine 30 nM. The procedure: (§1) HEK293 cells stably expressing α1A-AR/Gα16, α1B-AR/Gα16, α1D-AR/Gα16 were seeded in a 96-well plate, and cultured for 24 hours. Then the medium was removed and 40 μL Hank's balanced salt solution (HBSS: containing 5.4 mM KCl, 0.3 mM Na2HPO4, 0.4 mM KH2PO4, 4.2 mM NaHCO3, 1.3 mM CaCl2, 0.5 mM MgCl2, 0.6 mM MgSO4, 137 mM NaCl, 5.6 mM D-glucose, and 250 μM sulfinpyrazone, pH 7.4) containing 2 μM Fluo-4 AM was added into each well, and incubated at 37° C. for 45 min. Dye was removed and 50 μL of HBSS containing either test compound or 1% DMSO (negative control) was added. After incubation at room temperature for 10 min, Flex Station 3 microplate reader was used to read the value. At specified time points, 25 μL of agonist (phenylephrine, final concentration 30 nM) was dispensed into the well automatically using the reader and fluorescence intensity change of dye caused by intracellular calcium concentration change was detected at an excitation wavelength of 485 nm and an emission wavelength of 525 nm.
(§2) After incubation with different drugs, the reaction rate of cells to 1-AR agonist phenylephrine was calculated as follows: Reaction rate %=(D−B)/(S−B)*100%;
(§3) The reaction rate of the same drug at different doses was tested using GraphPad Prism software by non-linear regression analysis, and the dose-response curve was obtained and IC50 values was measured. Data were obtained from three separate experiments, and each experiment included three duplicate wells.

For another test, the target named is T2, α1B-AR (Homo sapiens, UniProt P35368).
T2 construct: expressed in transfected cells; host or cells: HEK293
T2 sequence (P35368 1-520): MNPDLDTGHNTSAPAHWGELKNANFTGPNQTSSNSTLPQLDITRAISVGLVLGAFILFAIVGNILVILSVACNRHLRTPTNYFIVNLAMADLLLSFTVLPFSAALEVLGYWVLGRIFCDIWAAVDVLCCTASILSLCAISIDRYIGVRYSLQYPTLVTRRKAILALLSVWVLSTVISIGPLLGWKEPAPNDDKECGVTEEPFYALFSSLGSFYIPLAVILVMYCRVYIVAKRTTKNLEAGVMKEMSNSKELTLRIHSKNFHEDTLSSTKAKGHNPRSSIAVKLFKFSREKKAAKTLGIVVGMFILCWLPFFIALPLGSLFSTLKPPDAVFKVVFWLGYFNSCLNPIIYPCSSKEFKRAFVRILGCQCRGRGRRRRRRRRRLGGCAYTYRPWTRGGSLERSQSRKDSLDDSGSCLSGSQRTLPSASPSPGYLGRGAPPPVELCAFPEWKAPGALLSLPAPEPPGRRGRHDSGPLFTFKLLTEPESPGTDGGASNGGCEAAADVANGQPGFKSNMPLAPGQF
Nature of the test: Calcium mobilization (Fluo-4) antagonism of phenylephrine in HEK293 cells expressing α1B-AR/Gα16. Format: cell-based. To be noted: phenylephrine 30 nM. The method, then: as §1, §2, §3

For the next test, the system named is SD rats. Nature of the test: Phenylephrine-induced intraurethral pressure (IUP) and arterial blood pressure (MBP) elevation in anesthetized rats. Format: in vivo. The conditions noted are these: anesthetized male SD rats; for inhibition of phenylephrine-induced intraurethral pressure (IUP) elevation / inhibition of phenylephrine-induced peripheral arterial blood pressure (MBP) elevation: intraduodenal administration. An excerpt:
Male SD rats (200-450 g) were anesthetized with an i.p. administration of urethane (1.25 g/kg). The urinary bladder, prostate, and urethra were exposed through an abdominal midline and symphysis pubica incision. A catheter was placed into the prostatic urethra through the bladder dome and secured at bladder neck (vesico-urethral junction) with a silk suture. The distal urethra under pubica was closed. The other side of the catheter was connected to a pressure transducer to measure the intraurethral pressure (IUP). After separating the duodenum and cutting open at about 2 cm from the stomach pylorus, intubating and performing purse-string suture, the test sample was supplied. Then, the median carotid incision was performed, carotid artery was separated, and the arterial blood pressure was measured by pressure transducer connected to artery cannula. Be careful not to hurt the nerves and blood vessels throughout the procedure. After surgery, a small amount (0.1˜0.2 mL) of saline was injected to balance the intraurethral pressure at around 10 cm of water. Then an intravenous injection at a concentration of 30 μg/mL of […] 1 mL/kg was performed before administration and 5 min, 30 min, 1 h, 1.5 h, 2 h, 3 h after administration to induce intraurethral pressure elevation. (If the effect was stable or weakened, then the experiment was ended.) The changes of intraurethral pressure and blood pressure induced by phenylephrine in rats were observed and recorded at different time points before and after administration.

The next test concerns BPH Rat model. Nature of the test: Pharmacodynamic experiment in BPH rat model (testosterone propionate), urination after water load. Format: in vivo, SD rats. To be noted: BPH model rats; for frequency of urination, single urine output: relation to dose: 3 doses, water load 30 mL/kg. The procedure:
Establishing of BPH Rat model: 6-week-old male SD rats (n=49) (body weight about 200 g), in which 37 rats were BPH model group and daily injected testosterone propionate subcutaneously, and the other 12 rats were Sham group and injected olive oil, for 4 weeks. After 4 weeks, 49 rats received gavage in a dosage of 30 mL/kg of water, and urination for each rat was observed and recorded (recording each urine output and frequency of urination within two hours).
According to the above verification results, rats having abnormal urination were firstly excluded. Then, the normal BPH model rats were divided into 2 groups, 12 rats every group, and 12 rats of Sham group were singled out as control group. Grouping principles were as follows: there were significant differences of body weight, frequency of urination within two hours, single urine output and the total amount of urination between the two groups of BPH model and Sham group, and there were no significant differences between the two groups of BPH model.
Efficacy verification experiment. The experiment had seven groups: Sham group, silodosin group (BPH-1,3-group dose) and DC037009 group (BPH-2,3-group dose). Rats received gavage in a dosage of 5 mL/kg and each dose of the compound dissolved with CMCNa. After 20 min, the rats received gavage in a dosage of 30 mL/kg water. The study time interval of different doses of the same compound was over 24 hours.

[1] abbreviates: under certain total urine output.

For the compound `COc1cc2c(cc1OCc1ccccc1)C[C@H]1c3cc4c(cc3CCN1C2)OCO4` [DC037016], the values for the IC50 on α1D-AR and on α1B-AR were 191 nM and 4250 nM, respectively.

On to `COc1cc2c(cc1OC)CN1CCc3cc4c(cc3[C@@H]1C2)OCO4` [DC037009, S-(−)-2,3-methylenedioxy-10,11-dimethoxy-5,8,13,13a-tetrahydro-6H-dibenzo[a,g]quinolizine], for which the “selectivity to urethra (rank order)” value with SD rats (IUP versus MBP) is recorded as “DC037009>Silodosin”. In the test on SD rats, the “onset dose compared with silodosin” value was “significantly lower than that of positive drug silodosin”, the “rank order of inhibition of phenylephrine-induced blood pressure elevation” value is “Silodosin>DC037009”, the “rank order of inhibition of phenylephrine-induced intraurethral pressure elevation” value is listed as “DC037009>Silodosin” and the “inhibition of phenylephrine-induced intraurethral pressure (IUP) elevation” value is “dose-dependently inhibit”. The “inhibition of phenylephrine-induced peripheral arterial blood pressure (MBP) elevation” value with SD rats is listed as “dose-dependently inhibit”. In the test with BPH Rat model (gavage), the “efficacy compared with positive drug” value is recorded as “comparable to the positive drug”; the onset dose worked out at 1 mg/kg; the “frequency of urination, single urine output: relation to dose” value is given as “dose-dependent relationship”. In the test on BPH Rat model (setting [1]), the frequency of urination entry was “reduce frequency of urination” and the single urine output result is given as “significantly increase”. The IC50 on α1D-AR came out at 260 nM. Moreover, on α1B-AR, the IC50 came to 5210 nM.

Consider `C[C@H](Cc1cc2c(c(C(N)=O)c1)N(CCCO)CC2)NCCOc1ccccc1OCC(F)(F)F` [Silodosin, reference compound], for which, in the test with SD rats, the “inhibition of phenylephrine-induced intraurethral pressure (IUP) elevation” value was “dose-dependently inhibit” and the “inhibition of phenylephrine-induced peripheral arterial blood pressure (MBP) elevation” value is reported as “dose-dependently inhibit”. The “frequency of urination, single urine output: relation to dose” value with BPH Rat model (gavage) is “dose-dependent relationship”.
